From the METLIN SMRT retention time set (Domingo-Almenara et al. 2019)

Assay: gradient 5% acetonitrile 3 min, to 50% in 2 min, to 85% in 15 min, held 3 min, 100 µL/min
Settings: column: Zorbax Extend-C18 2.1 x 50 mm; eluents: water / acetonitrile, 0.1% formic acid
Summary of the method: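 Values are retention times taken from adduct peaks that software picked and an analyst inspected. The pure standards were run as mixtures of ~100 molecules on HPLC linked to a quadrupole time-of-flight mass spectrometer, in positive and negative ionization mode. A Zorbax Extend-C18 column (2.1 × 50 mm, 1.8 μm) was used at 100 μL/min with water and acetonitrile, each including 0.1% formic acid.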

Row | Compound | RP-LC retention time [s]
1 | O=c1ccn(-c2ccc(F)c(F)c2)nc1-c1nc(-c2ccccc2F)no1 | 863
2 | COc1ccc(CCS(=O)(=O)NCC2(O)CCOCC2)cc1 | 758
3 | COc1ccc2c(c1)C1(CCN(C(=O)c3cccc(Cl)c3)C1)C(=O)N2C (centres undefined) | 831
4 | O=C(Nc1cccnc1)c1cccc([N+](=O)[O-])c1 | 661
5 | CCOc1ccc(-c2nc(-c3ccc4c(c3)N(CC)C(=O)CO4)no2)cc1OCC | 1200
6 | CCc1nc(N)n(CC(=O)NCc2ccc(Cl)cc2)c(=O)c1C | 645
7 | CCc1nc2c(=O)n(CC(=O)N3CCN(c4ccccn4)CC3)nc(C)c2s1 | 585
8 | O=S(=O)(c1cccc2cccnc12)N1CC(c2noc(C3CCCN3CC3CC3)n2)C1 (centres undefined) | 634
9 | CN(CC(=O)N1CCN(c2ccccc2F)CC1)S(=O)(=O)c1c[nH]c(C(=O)N2CCCC2)c1 | 752
10 | COc1cc(C2c3c(-c4ccc(C)cc4)n[nH]c3C(=O)N2C)ccc1O (centres undefined) | 692
11 | Clc1cccc(-c2noc(Cc3nc(-c4ccc5c(c4)OCO5)cs3)n2)c1 | 1250
12 | CCc1nn2c(CNS(=O)(=O)Cc3cccc(F)c3)c(-c3ccccc3)nc2s1 | 972
13 | Cc1nn(CC(=O)N2CCN(c3ccccn3)CC2)c(=O)c2nc(-c3ccccc3)sc12 | 632
14 | Cc1nc2cc(N3CC(C(=O)N4CCN(c5ccc(F)cc5)CC4)CC3=O)ccc2o1 (centres undefined) | 749
15 | CCCC(C)C(=O)NCCc1nc2cccnc2n1C (centres undefined) | 593
16 | O=S(=O)(c1ccccc1)N1CC(F)(F)C[C@H]1COc1cccnc1 | 690
17 | COc1ccc(-c2ccnc3nc(CCc4ccccc4)nn23)cc1OC | 879
18 | COCc1cc(=O)n(Cc2ccccc2C#N)c(N2CCCC2)n1 | 744
19 | O=C(NCCCN1CCOCC1)c1ccc2c(c1)NC(=O)C1CCCCN21 (centres undefined) | 582
20 | O=C1C2CC3N1CCC31c3ccccc3-n3c1c2ccc3=O (centres undefined) | 721
21 | Cc1ccccc1NC(=O)c1ccc(=O)n(CCN2CCCC2)c1 | 584
22 | Cc1ccc(-c2ncc(C#N)c(=O)n2CC(=O)NCc2ccccc2Br)cc1 | 1010
23 | CC(=O)Nc1cc(C(=O)NC(C)c2ccccc2)c2ccc(C)nc2c1 (centres undefined) | 1030

Row | Compound | RP-LC retention time [s]
24 | CCOC(=O)CCC(=O)Nc1cccc2ccc(-n3ccnc3)nc12 | 586
25 | COCCNC(=O)C1CCN(c2cncnc2N2CCCCC2)CC1 | 588
26 | COc1ccc(CN2CC3(CCN(S(=O)(=O)c4c(C)noc4C)CC3)C2=O)cc1 | 842
27 | CCOC(=O)N1CCN(c2nc(F)c3c(c2F)S(=O)(=O)CCN3CC2CCCO2)CC1 (centres undefined) | 958
28 | O=C(c1cccnc1)c1cc(-c2ccccn2)c(=O)n2ccccc12 | 630
29 | Cc1cc(C)nc(SCC(=O)Nc2ncc(Cc3ccc(Cl)cc3)s2)n1 | 942
30 | Cc1cc(C)cc(C(=O)N2CCCC(C(=O)Nc3ccc(Br)c(C)c3)C2)c1 (centres undefined) | 1110
31 | COc1ccc(-c2ccnc3nc(-c4ccco4)nn23)c(F)c1 | 819
32 | CCCCN(C)C(=O)C1CCN(c2cn[nH]c(=O)c2)CC1 | 640
33 | Cc1ccccc1CNC(=O)Cn1cnc2onc(C)c2c1=O | 738
34 | CCN1C(=O)c2cc(S(=O)(=O)Nc3cccc(C)c3C)ccc2Oc2cccnc21 | 1030
35 | Cc1cc(Cl)ccc1S(=O)(=O)N1CCc2c(c(CN3CCCC3)nn2C)C1 | 679
36 | Cc1c(Cl)cccc1NC(=O)N1C[C@@H](F)C[C@H]1C(=O)N1CCc2ccccc2C1 | 864
37 | Cc1ccc2c(=O)c(C(=O)N3CCCCC3)cn(CC(=O)NCc3ccccc3)c2n1 | 753
38 | COc1ccccc1CNc1ccc(-c2nc(-c3ccc(F)cc3)no2)cn1 | 1220
39 | O=C(NCc1ccco1)C1CCCN(S(=O)(=O)c2c[nH]c(C(=O)N3CCCCCC3)c2)C1 (centres undefined) | 771
40 | C=Cc1ccc(CN2C(=O)CCC2c2nc(C)no2)cc1 (centres undefined) | 731
41 | CC1(C(=O)NCc2ccccc2)Cn2cnc(C(=O)NCc3ccc(Cl)cc3)c2C(=O)N1C1CC1 (centres undefined) | 789
42 | O=c1oc2cc(O)c(O)cc2c2c1CCCC2 | 684
43 | O=c1c2ccccc2ncn1Cc1noc(Cc2ccc(Cl)cc2)n1 | 872
44 | COC(=O)c1c(NCC2CC2)c2cccc(Cl)c2[nH]c1=O | 757
45 | O=C(Nc1ccccc1)N1CCC(CCOc2cccnc2)CC1 | 638
46 | CCCN(CCC)S(=O)(=O)c1cccc(-c2cn3cc(C)ccc3n2)c1 | 731

Row | Compound | RP-LC retention time [s]
47 | CC(=O)c1ccc(Nc2ncnc3c2cnn3-c2ccccc2Cl)cc1 | 804
48 | Cn1cccc1CN(C(=O)c1ccc(Cl)c(Cl)c1)C1CC1 | 994
49 | O=c1c2c(CO)c(-c3ccccc3)nn2ccn1Cc1cccc(C(F)(F)F)c1 | 996
50 | Cc1cc(-c2nnc(C3CCC3)o2)c(C)n1CC(=O)Nc1ccc(Br)cc1F | 982
51 | Cn1c(C(=O)NCCCN2CCCCC2)cc2c(-c3cccs3)nn(-c3ccccc3)c21 | 746
52 | Cc1ccc(Cn2cc(-c3ccncc3)cc2C(=O)NCc2cccs2)cc1 | 734
53 | N#Cc1ccc(S(=O)(=O)N2CCC(Cc3nc(-c4cccnc4)n[nH]3)C2)cc1 (centres undefined) | 634
54 | Cc1ccc(Cl)cc1-n1ccnc(NC(=O)Nc2ccccc2)c1=O | 1020
55 | Cc1cc(C)c2c(N3CCOCC3)nc(C(=O)NCc3cc(F)ccc3F)nc2n1 | 590
56 | COCc1cn(C2CN(C(=O)C3(c4ccccc4)CC3)C2)nn1 | 688
57 | Cc1ccc(C)c(NC(=O)N2CCC(n3cnnc3C3CC3)C2)c1 (centres undefined) | 634
58 | O=c1ccc(-c2ccc3c(c2)OCO3)nn1CCc1nc(-c2cccc(Cl)c2)no1 | 1010
59 | O=S(=O)(c1ccc2c(c1)CCC2)N1CCCC(Cn2c(C3CC3)nc3cccnc32)C1 (centres undefined) | 775
60 | O=C(Nc1cccc(-c2ccc(N3CCOCC3)nn2)c1)Nc1ccccc1C(F)(F)F | 750
61 | CCOC(=O)c1nn(-c2ccccc2C)c(=O)cc1NCc1ccc2c(c1)OCO2 | 874
62 | COc1ccccc1CC(=O)N1CCCC1c1cc(C(C)C)on1 (centres undefined) | 902
63 | COc1cc(NC(=O)NC2CCN(c3nc4ccccc4n(C)c3=O)CC2)cc(OC)c1 | 801
64 | CC(=O)Nc1nc2ccc(CC(=O)N3CCN(c4ccccn4)CC3)cc2s1 | 570
65 | CCOc1ccc(NC(=O)C2CCN(S(=O)(=O)c3ccc4c(c3)sc(=O)n4C)CC2)cc1 | 798
66 | COc1ccccc1-c1noc2ncnc(N3CCN(c4ccccn4)CC3)c12 | 646
67 | CC(=O)N1CCc2c(-c3ccccc3)cccc2[C@H]1C | 976
68 | Fc1cc(F)cc(-c2nnc(Cc3nc(-c4ccccc4Cl)no3)o2)c1 | 1050
69 | CS(=O)(=O)N1CC(c2noc(-c3cccnc3)n2)C2(CCOCC2)C1 (centres undefined) | 660

Row | Compound | RP-LC retention time [s]
70 | Cc1cc(Nc2ccc(NC(=O)Cn3cnc4ccccc43)cc2)nc(N2CCCC2)n1 | 548
71 | C[C@@H]1CN(C(=O)c2cccs2)C[C@H]1c1nc(-c2ccccc2)no1 | 965
72 | Cc1cc(NS(=O)(=O)c2cc3n(c2)CCN(C)C3=O)ccc1F | 698
73 | O=C(c1ccc(F)c(F)c1)N1CCCN(c2cc(-c3ccc4c(c3)OCO4)[nH]n2)CC1 | 703
74 | Cc1ccc(-n2c(=O)c3c(cc(C)n3C)n(CC(=O)Nc3cccc(C)c3)c2=O)cc1 | 905
75 | CC(C)c1cccc(NC(=O)Cn2cc(-c3nc(-c4cccs4)no3)ccc2=O)c1 | 962
76 | COCC(=O)N1CCCN(C2=NS(=O)(=O)C(c3ccccc3)=C2C)CC1 | 662
77 | CSc1ccc(-c2nc3cnccn3c2Nc2cccc(C(=O)NC(C)C)c2)cc1 | 784
78 | CCC1Oc2ccc(S(=O)(=O)N3CCC(C(=O)N4CCOCC4)CC3)cc2NC1=O (centres undefined) | 691
79 | Cc1nc2cccnc2n1C1CCN(C(=O)Nc2ccc(Br)cc2)CC1 | 669
80 | CCCCOc1ccc(C(=O)Nc2ccc(-c3nc(C)no3)cc2)cc1 | 1070
81 | CCCNC(=O)N1CCC(c2nc(-c3ccncc3)no2)C1 (centres undefined) | 604
82 | O=C1NCCCCCCN(C(=O)c2ccc3ccccc3n2)[C@H]2C[C@H](C(=O)N3CCc4ccccc4C3)C[C@@H]12 | 896
83 | Cc1ccc(F)c(NS(=O)(=O)c2cc(-c3nc(C(C)(C)C)cs3)cs2)c1 | 1260
84 | O=C(c1ccccc1C(F)(F)F)N1CCN=C1SCc1cccnc1 | 590
85 | Cc1ccc(Cn2cc(-c3ccncc3)cc2C(=O)NCc2cccnc2)cc1 | 581
86 | Cc1nn(C(C)C)c(C)c1S(=O)(=O)N1CCN(C(=O)CCc2c[nH]c3ccccc23)CC1 | 829
87 | O=C(c1nc2ccccn2c1-c1ccsc1)N1CCCCC1 | 665
88 | CN1C(=O)Cc2cc(S(=O)(=O)CCC(=O)N3CCN(c4ccccn4)CC3)ccc21 | 902
89 | Cc1cccc(-c2nc(Cn3nnc(-c4nc(-c5cccc(Cl)c5)no4)c3C)c(C)o2)c1 | 1300
